According to patent US9499550B2 (BRISTOL-MYERS SQUIBB COMPANY, priority 2012, dated 2016):
Read-outs that look alike come from different tables or passages of the source.

Assays:
[1] = test system: HCV genotype 1a (H77 strain) replicon in HUH-7 cells; test: HCV replicon luciferase reporter assay, genotype 1a; assay type: cell-based; settings: Hepatitis C virus, Huh-7, 72 h, 3 days incubation
How it was run: (§1)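 Replicon inhibition for both genotypes was measured as Renilla luciferase signal (EnduRen, 7.5 μM final, 2 h) after 3-day, 37° C exposure of replicon-bearing HUH-7 cells in 4% FCS DMEM, 0.5% DMSO. The 1b construct carries S1179I; the 1a H77 construct carries P1496L and S2204I. Twenty-point, 3-fold dilutions were fitted four-parametrically for EC50, and CC50 was taken from multiplexed Cell Titer-Blue.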

[2] = test system: HCV genotype 1b (Con1) replicon in HUH-7 cells; test: HCV replicon luciferase reporter assay, genotype 1b; assay type: cell-based; settings: Hepatitis C virus, Huh-7, 72 h, 3 days incubation
How it was run: as §1

[3] = HCV genotype 1a replicon luciferase, read-out: LE_1a (EC50, range)
[4] = HCV genotype 1b replicon luciferase, read-out: LE_1b (EC50, range)
[5] = HCV genotype 1a replicon luciferase assay, range class, read-out: LE_1a (EC50, range)
[6] = HCV genotype 1b replicon luciferase assay, range class, read-out: LE_1b (EC50, range)

Row | SMILES | EC50 [1, 3] | EC50 [2, 4] | EC50 [1, 5] | EC50 [2, 6] | further results
1 | COc1ccc2c(O[C@@H]3C[C@H]4C(=O)N[C@]5(C(=O)NS(=O)(=O)C6CC6)C[C@H]5/C=C\CC[C@H](C)C[C@@H](C)[C@H](NC(=O)OC(C)(C)C)C(=O)N4C3)nc(-c3ccccc3)cc2c1 [Compound 5186, tert-butyl ((2R,6S,7R,9S,13aS,14aR,16aS,Z)-14a-((cyclopropylsulfonyl)carbamoyl)-2-((6-methoxy-3-phenylisoquinolin-1-yl)oxy)-7,9-dimethyl-5,16-dioxo-1,2,3,5,6,7,8,9,10,11,13a,14,14a,15,16,16a-hexadecahydrocyclopropa[e]pyrrolo[1,2-a][1,4]diazacyclopentadecin-6-yl)carbamate] | < 5.46 nM | < 5.46 nM |  |  | 
2 | COc1ccc2c(O[C@@H]3C[C@H]4C(=O)N[C@]5(C(=O)NS(=O)(=O)C6CC6)C[C@H]5/C=C\CC[C@@H](C)C[C@@H](C)[C@H](NC(=O)OC(C)(C)C)C(=O)N4C3)nc(-c3ccc(F)cc3)cc2c1 [Compound 3042, tert-butyl ((2R,6S,7R,9R,13aS,14aR,16aS,Z)-14a-((cyclopropylsulfonyl)carbamoyl)-2-((3-(4-fluorophenyl)-6-methoxyisoquinolin-1-yl)oxy)-7,9-dimethyl-5,16-dioxo-1,2,3,5,6,7,8,9,10,11,13a,14,14a,15,16,16a-hexadecahydrocyclopropa[e]pyrrolo[1,2-a][1,4]diazacyclopentadecin-6-yl)carbamate] |  |  | < 5.46 nM | < 5.46 nM | 
3 | CC[C@@H]1C[C@@H](C)CC/C=C\[C@@H]2C[C@@]2(C(=O)NS(=O)(=O)C2(C)CC2)NC(=O)[C@@H]2C[C@@H](Oc3nnc(OC)c4ccccc34)CN2C(=O)[C@H]1NC(=O)NC(C)(C)C [Compound 5023, (2R,6S,7R,9S,13aS,14aR,16aS,Z)-6-(3-(tert-butyl)ureido)-7-ethyl-2-((4-methoxyphthalazin-1-yl)oxy)-9-methyl-N-((1-methylcyclopropyl)sulfonyl)-5,16-dioxo-1,2,3,5,6,7,8,9,10,11,13a,14,14a,15,16,16a-hexadecahydrocyclopropa[e]pyrrolo[1,2-a][1,4]diazacyclopentadecine-14a-carboxamide] | 4.82 to 103 nM | 4.82 to 103 nM |  |  | EC50 ([1]; HCV genotype 1a replicon luciferase, read-out: LE_1a (EC50)): 16 nM; EC50 ([2]; HCV genotype 1b replicon luciferase, read-out: LE_1b (EC50)): 24.6 nM
4 | CC[C@@H]1C[C@H](C)CC/C=C\[C@@H]2C[C@@]2(C(=O)NS(=O)(=O)C2(C)CC2)NC(=O)[C@@H]2C[C@@H](Oc3cc(OC)nc4cc(OC)c(F)cc34)CN2C(=O)[C@H]1NC(=O)OC(C)(C)C(F)(F)F [Compound 1199] |  |  |  |  | EC50 ([1]; GETYPE1A, HCV genotype 1a replicon luciferase, read-out: LE_1a (EC50, range)): 1.01 to 5 nM; EC50 ([2]; GETYPE1B, HCV genotype 1b replicon luciferase, read-out: LE_1b (EC50, range)): 1.01 to 5 nM
5 | C[C@@H]1CC/C=C\[C@@H]2C[C@@]2(C(=O)NS(=O)(=O)C2(C)CC2)NC(=O)[C@@H]2C[C@@H](Oc3nc4c(c5ccccc35)CCCO4)CN2C(=O)[C@@H](NC(=O)OC(C)(C)C)[C@H](C)C1 [Compound 6044, tert-butyl ((2R,6S,7R,9R,13aS,14aR,16aS,Z)-2-((2,3-dihydro-1H-pyrano[2,3-c]isoquinolin-6-yl)oxy)-7,9-dimethyl-14a-(((1-methylcyclopropyl)sulfonyl)carbamoyl)-5,16-dioxo-1,2,3,5,6,7,8,9,10,11,13a,14,14a,15,16,16a-hexadecahydrocyclopropa[e]pyrrolo[1,2-a][1,4]diazacyclopentadecin-6-yl)carbamate] | 1.01 to 5 nM | 0.1 to 0.5 nM |  |  | 
6 | COc1ccc2c(O[C@@H]3C[C@H]4C(=O)N[C@]5(C(=O)NS(=O)(=O)C6CC6)C[C@H]5/C=C\CC[C@@H](C)C[C@@H](C)[C@H](NC(=O)O[C@H](C)C(F)(F)F)C(=O)N4C3)nc(N3CCOCC3)cc2c1 [Compound 3103, (R)-1,1,1-trifluoropropan-2-yl ((2R,6S,7R,9R,13aS,14aR,16aS,Z)-14a-((cyclopropylsulfonyl)carbamoyl)-2-((6-methoxy-3-morpholinoisoquinolin-1-yl)oxy)-7,9-dimethyl-5,16-dioxo-1,2,3,5,6,7,8,9,10,11,13a,14,14a,15,16,16a-hexadecahydrocyclopropa[e]pyrrolo[1,2-a][1,4]diazacyclopentadecin-6-yl)carbamate] |  |  | < 5.46 nM | < 5.46 nM | 
